15 compounds from patent US20160257697A1, “THIOPHENE-SUBSTITUTED TETRACYCLIC COMPOUNDS AND METHODS OFUSE THEREOF FOR THE TREATMENT OF VIRAL DISEASES” (priority 2013, published 2016) can be followed below.

What all share (assay): microbe, parasite or virus in culture
Holding throughout (format): cell-based, Hepatitis C virus (HCV)

The test system of assay [1] is HCV replicon 1B. Particulars: Replicon Assay B. In general terms: In antiviral work, replicon cells carry a viral genome segment that copies itself.
For assay [2], the system named is HCV replicon 1AQ30D. To be noted: Replicon Assay B.
The subject of assay [3] is HCV replicon 1AY93H. Particulars: Replicon Assay A. In a few lines:
(§1)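 Compound is added to replicon cells plated at 2000 cells/well (0.5% DMSO, 5% FBS). After 3 days the cells are washed and lysed, and HCV RNA and cyclophilin mRNA are quantified by multiplex RT-PCR against a standard curve of known replicon total RNA.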

Assay [4] has as its system HCV replicon 1A. Particulars: Replicon Assay A. In a few lines:
as §1

Assay [5] deals with HCV replicon 2B. To be noted: Replicon Assay A. The method, boiled down:
as §1

Where [6] appears, read: read-out: 1A Q30D IC50, replicon 1AQ30D.
The mark [7] stands for this setting: read-out: 1A Y93H IC50, replicon 1AY93H.
[8] abbreviates: Hepatitis C virus, read-out: 1A Q30D IC50, HCV replicon 1A Q30D.
The mark [9] stands for this setting: read-out: 1A Y93H IC50, HCV replicon 1A Y93H.
Where [10] appears, read: read-out: 2B IC50, HCV replicon 2B.
Setting [11] is: Hepatitis C virus, read-out: 1A Q30D IC50 (nM), replicon 1AQ30D.
The mark [12] stands for this setting: Hepatitis C virus, read-out: 1A Y93H IC50 (nM), replicon 1AY93H.
Where [13] appears, read: Hepatitis C virus, read-out: 2B IC50 (nM), replicon 2B.
The mark [14] stands for this setting: read-out: 1A Q30D IC50, HCV replicon 1A Q30D.

Where two headings read alike, the source gives them in different places.

As a reminder, the IC50 is the concentration that inhibits the measured activity by half.

For the compound `COC(=O)NC(C(=O)N1CCC[C@H]1c1ncc(-c2ccc3c(c2)cc2n3C(c3ccc(C4CC4)s3)Oc3cc(-c4cnc([C@@H]5CCCN5C(=O)[C@@H](NC(=O)OC)C(C)C)[nH]4)cc(F)c3-2)[nH]1)C1CCCCO1` (single isomer, unassigned) [Compound 343], the IC50 amounted to 2.3 pM in assay [1] (replicon 1B); 0.704 nM in assay [2] (setting [6]); 0.37 nM in assay [3] (setting [7]); 1 pM in assay [4] (replicon 1A); 0.829 nM in assay [5] (read-out: 2B IC50, replicon 2B).

As for `COC(=O)N[C@H](C(=O)N1CCC[C@H]1c1ncc(-c2cc(F)c3c(c2)OC(c2cc4c(s2)CCC4)n2c-3cc3cc(-c4cnc([C@@H]5C[C@H]6C[C@H]6N5C(=O)[C@@H](NC(=O)OC)C5CCOCC5)[nH]4)ccc32)[nH]1)C(C)C` (single isomer, unassigned) [Compound 541], the IC50 turned out to be 23.7 pM in assay [1] (HCV replicon 1B); 0.303 nM in assay [2] (setting [8]); 2.19 nM in assay [3] (setting [9]); 14.8 pM in assay [4] (HCV replicon 1A); 0.096 nM in assay [5] (setting [10]).

Turning to `COC(=O)NC(C(=O)N1CCC[C@H]1c1ncc(-c2ccc3c(c2)cc2n3C(c3ccc(CC4CC4)s3)Oc3cc(-c4cnc([C@@H]5CCCN5C(=O)[C@@H](NC(=O)OC)C(C)C)[nH]4)cc(F)c3-2)[nH]1)C1C[C@@H](C)O[C@@H](C)C1` (single isomer, unassigned) [Compound 375], the IC50 turned out to be 2.6 pM in assay [1] (Hepatitis C virus, replicon 1B); 0.315 nM in assay [2] (setting [11]); 0.0269 nM in assay [3] (setting [12]); 1.5 pM in assay [4] (Hepatitis C virus, replicon 1A); 0.024 nM in assay [5] (setting [13]).

Regarding `COC(=O)NC(C(=O)N1CCC[C@H]1c1ncc(-c2ccc3c(c2)cc2n3C(c3cc4ccccc4s3)Oc3cc(-c4cnc([C@@H]5CCCN5C(=O)[C@@H](NC(=O)OC)C5CCOCC5)[nH]4)cc(F)c3-2)[nH]1)C(C)(C)F` (single isomer, unassigned) [Compound 185], the IC50 in assay [1] (replicon 1B) was 2.6 pM; in assay [2] (setting [6]) it was 2.95 nM; in assay [3] (setting [7]) it was 2.4 nM; in assay [4] (replicon 1A) it was 4.6 pM; in assay [5] (read-out: 2B IC50, replicon 2B), 1.35 nM.

Turning to `COC(=O)NC(C(=O)N1CCC[C@H]1c1ncc(-c2ccc3c(c2)cc2n3C(c3cc4ccccc4s3)Oc3cc(-c4cnc([C@@H]5CCCN5C(=O)[C@@H](NC(=O)OC)C5CCOCC5)[nH]4)cc(F)c3-2)[nH]1)C(C)(C)F` (single isomer, unassigned) [Compound 183], the half-maximal inhibitory concentration (IC50) in assay [1] (replicon 1B) was 2.4 pM; in assay [2] (setting [6]) it was 1.08 nM; in assay [3] (setting [7]) it was 0.74 nM; in assay [4] (replicon 1A) it was 1.2 pM; in assay [5] (read-out: 2B IC50, replicon 2B) it was 0.68 nM.

In the case of `COC(=O)N[C@H](C(=O)N1CCC[C@H]1c1ncc(-c2cc(F)c3c(c2)OC(c2cc4c(s2)CCC4)n2c-3cc3cc(-c4cnc([C@@H]5CCCN5C(=O)[C@@H](NC(=O)OC)C5CCOCC5)[nH]4)ccc32)[nH]1)C(C)C` (single isomer, unassigned) [Compound 622], the half-maximal inhibitory concentration (IC50) turned out to be 2.2 pM in assay [1] (HCV replicon 1B); 0.0594 nM in assay [2] (setting [14]); 0.0044 nM in assay [3] (setting [9]); 2.4 pM in assay [4] (HCV replicon 1A); 0.0068 nM in assay [5] (setting [10]).

For the compound `COC(=O)NC(C(=O)N1CCC[C@@H]1c1ncc(-c2ccc3c(c2)cc2n3C(c3ccc(CC4CC4)s3)Oc3cc(-c4cnc([C@@H]5CCCN5C(=O)[C@@H](NC(=O)OC)C(C)C)[nH]4)cc(F)c3-2)[nH]1)C1C[C@@H](C)O[C@@H](C)C1` (stereo partly drawn) [Compound 376], the IC50 worked out at 2.9 pM in assay [1] (Hepatitis C virus, replicon 1B); 0.0424 nM in assay [2] (setting [11]); 0.0023 nM in assay [3] (setting [12]); 2.6 pM in assay [4] (Hepatitis C virus, replicon 1A); 0.006 nM in assay [5] (setting [13]).

In the case of `COC(=O)N[C@H](C(=O)N1CCC[C@H]1c1ncc(-c2cc(F)c3c(c2)OC(c2cc4c(s2)CCC4)n2c-3cc3cc(-c4cnc([C@@H]5C[C@H]6C[C@H]6N5C(=O)[C@@H](NC(=O)OC)C5C[C@@H](C)O[C@@H](C)C5)[nH]4)ccc32)[nH]1)C(C)C` (single isomer, unassigned) [Compound 551], the IC50 amounted to 7.91 pM in assay [1] (HCV replicon 1B); 0.172 nM in assay [2] (setting [14]); 0.0167 nM in assay [3] (setting [9]); 6.29 pM in assay [4] (HCV replicon 1A); 0.0847 nM in assay [5] (setting [10]).

As to `COC(=O)NC(C(=O)N1CCC[C@H]1c1ncc(-c2cc(F)c3c(c2)OC(c2ccc(C4CC4)s2)n2c-3cc3cc(-c4cnc([C@@H]5CCCN5C(=O)C(NC(=O)OC)C(C)(C)F)[nH]4)ccc32)[nH]1)C(C)(C)F` (single isomer, unassigned) [Compound 111], the IC50 in assay [1] (Hepatitis C virus, replicon 1B) was determined as 1.7 pM; in assay [2] (setting [11]), 0.13 nM; in assay [3] (setting [7]) it was 0.074 nM; in assay [4] (replicon 1A), 3.2 pM; in assay [5] (read-out: 2B IC50, replicon 2B), 0.038 nM.

For `COC(=O)NC(C(=O)N1[C@@H]2C[C@@H]2C[C@H]1c1ncc(-c2ccc3c(c2)cc2n3C(c3ccc(CC4CC4)s3)Oc3cc(-c4cnc([C@@H]5CCCN5C(=O)[C@@H](NC(=O)OC)C(C)C)[nH]4)cc(F)c3-2)[nH]1)C1CCOC(C)(C)C1` (single isomer, unassigned) [Compound 417], the IC50 turned out to be 6 pM in assay [1] (HCV replicon 1B); 0.0738 nM in assay [2] (setting [14]); 0.119 nM in assay [3] (setting [9]); 3.4 pM in assay [4] (HCV replicon 1A); 0.0098 nM in assay [5] (setting [10]).

For the compound `COC(=O)NC(C(=O)N1CCC[C@H]1c1ncc(-c2cc(F)c3c(c2)OC(c2ccc(C)s2)n2c-3cc3cc(-c4cnc([C@@H]5CCCN5C(=O)[C@@H](NC(=O)OC)C5CCOCC5)[nH]4)ccc32)[nH]1)C(C)(C)F` (single isomer, unassigned) [Compound 106], the IC50 in assay [1] (Hepatitis C virus, replicon 1B) amounted to 1.5 pM; in assay [2] (setting [6]) it was 0.03 nM; in assay [3] (setting [12]) it was 0.16 nM; in assay [4] (Hepatitis C virus, replicon 1A) it was 2.1 pM; in assay [5] (setting [13]), 0.35 nM.

As to `COC(=O)NC(C(=O)N1CCC[C@H]1c1ncc(-c2ccc3c(c2)cc2n3C(c3ccc(C4CC4)s3)Oc3cc(-c4cnc([C@@H]5CCCN5C(=O)[C@@H](NC(=O)OC)C(C)C)[nH]4)cc(F)c3-2)[nH]1)C1C2COCC21` (single isomer, unassigned) [Compound 339], the IC50 amounted to 2.2 pM in assay [1] (Hepatitis C virus, replicon 1B); 0.133 nM in assay [2] (setting [11]); 0.0047 nM in assay [3] (setting [7]); 2 pM in assay [4] (replicon 1A); 0.0292 nM in assay [5] (read-out: 2B IC50, replicon 2B).

As to `COC(=O)NC(C(=O)N1CCC[C@H]1c1ncc(-c2ccc3c(c2)cc2n3C(c3cc(C)c(C)s3)Oc3cc(-c4cnc([C@@H]5CCCN5C(=O)[C@@H](NC(=O)OC)C5CCOCC5)[nH]4)cc(F)c3-2)[nH]1)C(C)(C)F` (stereo partly drawn) [Compound 128], the IC50 in assay [1] (Hepatitis C virus, replicon 1B) is 3.6 pM; in assay [2] (setting [11]), 0.044 nM; in assay [3] (setting [12]), 0.03 nM; in assay [4] (Hepatitis C virus, replicon 1A), 3 pM; in assay [5] (setting [13]), 0.045 nM.

Take `COC(=O)N[C@H](C(=O)N1CCC[C@H]1c1ncc(-c2cc(C)c3c(c2)OC(c2ccc(C4CC4)s2)n2c-3cc3cc(-c4cnc([C@@H]5CCCN5C(=O)[C@@H](NC(=O)OC)C(C)C)[nH]4)ccc32)[nH]1)C(C)C` (single isomer, unassigned) [Compound 751]: the IC50 was found to be 29 pM in assay [1] (HCV replicon 1B); 0.996 nM in assay [2] (setting [8]); 0.51 nM in assay [3] (setting [9]); 3.3 pM in assay [4] (HCV replicon 1A); 0.027 nM in assay [5] (setting [10]).

On to `COC(=O)N[C@H](C(=O)N1CCC[C@H]1c1ncc(-c2cc(F)c3c(c2)OC(c2ccc(-c4ccc(I)cc4)s2)n2c-3cc3cc(-c4cnc([C@@H]5CCCN5C(=O)[C@@H](NC(=O)OC)C(C)C)[nH]4)ccc32)[nH]1)C(C)C` (mixture of isomers) [Compound 313], for which the half-inhibitory concentration (IC50) in assay [1] (Hepatitis C virus, replicon 1B) is 2.9 pM; in assay [2] (setting [11]), 0.19 nM; in assay [3] (setting [12]), 0.026 nM; in assay [4] (Hepatitis C virus, replicon 1A) it was 3.2 pM; in assay [5] (setting [13]), 0.1 nM.
